{
  "source": "patent US11992494B2",
  "about": "“Cyclopentathiophene carboxamide derivatives as platelet activating factor receptor antagonists” (Boehringer Ingelheim International GmbH, priority 2021, dated 2024)",
  "origin": "cited, not measured here",
  "biological_target": "PAF (Homo sapiens, UniProt P25105)",
  "sequence (P25105 whole entry)": "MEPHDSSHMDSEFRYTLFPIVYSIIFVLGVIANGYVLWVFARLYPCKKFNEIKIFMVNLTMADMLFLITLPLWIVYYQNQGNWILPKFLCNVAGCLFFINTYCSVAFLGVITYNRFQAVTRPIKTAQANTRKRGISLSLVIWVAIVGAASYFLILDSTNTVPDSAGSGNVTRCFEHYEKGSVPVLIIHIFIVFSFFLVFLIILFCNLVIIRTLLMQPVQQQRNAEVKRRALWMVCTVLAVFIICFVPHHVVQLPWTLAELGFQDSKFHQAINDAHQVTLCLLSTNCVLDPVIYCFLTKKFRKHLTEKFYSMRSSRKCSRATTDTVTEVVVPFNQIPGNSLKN",
  "conditions": "see EP0480455A1, cited from earlier work",
  "note": "Read-outs that look alike come from different tables or passages of the source.",
  "data": [
    {"smiles": "Cc1nnc2n1-c1sc(CCC(=O)N3CCOCC3)cc1C(c1ccccc1Cl)=NC2C", "note": "(stereo not drawn) [example 1 of EP0368175A1 S-configured isomer]", "values": [
      {"measurement": "PAF-antagonistic activity relative to racemate", "result": "S-configured isomer with several times"},
      {"measurement": "PAF-antagonistic activity relative to racemate", "setting": "listed as Compound B S-configured enantiomer", "result": "several times stronger"}
    ]}
  ]
}
